The compounds below were run against T1, Human IDO1 (Homo sapiens, UniProt P14902) (assay: IDO Kynurenine Assay with Human IDO1/HEK293 Cells). Details: read-out: HEK human IDO-1 (IC50).
T1 construct: expressed in transfected cells; host or cells: HEK293
Format: cell-based
Procedure: IDO Kynurenine Assay with Human IDO1/HEK293 Cells
Human IDO1/HEK293 cells were seeded at 10,000 cells per 50 uL per well with RPMI/phenol red free media contains 10% FBS in a 384-well black wall clear bottom tissue culture plate (Matrix Technologies LLC) 125 nL of certain concentration of compound was then added to each well using ECHO liquid handling systems. The cells were incubated for 20 hours in 37° C. incubator with 5% CO2.
The compound treatments were stopped by adding Trichloroacetic Acid (Sigma-Aldrich) to a final concentration at 0.2%. The cell plate was further incubated at 50° C. for 30 minute. The equal volume supernatant (20 uL) and 0.2% (w/v) Ehrlich reagent (4-dimethylaminobenzaldehyde, Sigma-Aldrich) in glacial acetic acid were mixed in a new clear bottom 384-well plate. This plate was then incubated at room temperature for 30 minute. The absorbance at 490 nm was measured on Envision plate reader.
Compound IC50 values were calculated using the counts of 500 nM of a reference standard treatment as one hundred percent inhibition, and counts of no compound but DMSO treatment as zero percent inhibition.

T1 sequence (P14902 whole entry): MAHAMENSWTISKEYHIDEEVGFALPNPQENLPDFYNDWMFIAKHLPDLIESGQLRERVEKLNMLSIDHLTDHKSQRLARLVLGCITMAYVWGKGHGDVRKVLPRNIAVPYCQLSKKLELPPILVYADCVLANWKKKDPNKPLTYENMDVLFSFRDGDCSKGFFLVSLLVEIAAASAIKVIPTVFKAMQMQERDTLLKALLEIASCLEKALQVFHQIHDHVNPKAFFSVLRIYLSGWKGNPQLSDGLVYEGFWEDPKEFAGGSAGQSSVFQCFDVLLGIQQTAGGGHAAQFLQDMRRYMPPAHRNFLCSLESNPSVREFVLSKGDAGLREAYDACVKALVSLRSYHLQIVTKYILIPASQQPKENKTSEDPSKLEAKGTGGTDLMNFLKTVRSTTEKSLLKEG

Row | IC50 | SMILES
1 | 270 nM | Cc1cnc(NC(=O)Nc2cc(-c3ccccc3-c3nnn[nH]3)ccc2N(CC(C)C)CC(C)C)cn1 [Example 308, 1-(4-(diisobutylamino)-2′-(2H-tetrazol-5-yl)-[1,1′-biphenyl]-3-yl)-3-(5-methylpyrazin-2-yl)urea]
2 | 4 nM | Cc1cccc(-c2ccc(N(CC(C)C)CC(C)C)c(NC(=O)Nc3ccc(OC(F)(F)F)cc3)c2)c1C(=O)O [Example 309, 4′-(Diisobutylamino)-3-methyl-3′-(3-(4-(trifluoromethoxy)phenyl)ureido)-[1,1′-biphenyl]-2-carboxylic acid]
3 | 4.06 nM | Cc1ccc(NC(=O)Nc2cc(-c3ccccc3-c3nnn[nH]3)ccc2N(CC(C)(F)F)C2CCCCC2)cc1 [Example 356, 1-(4-(cyclohexyl(2,2-difluoropropyl)amino)-2′-(1H-tetrazol-5-yl)-[1,1′-biphenyl]-3-yl)-3-(p-tolyl)urea]
4 | 550 nM | CC(C)CN(CC(C)C)c1ccc(-c2ccc(Cl)cc2C(=O)O)cc1NC(=O)Nc1ccc(C#N)nc1 [Example 359, 4-Chloro-3′-(3-(6-cyanopyridin-3-yl)ureido)-4′-(diisobutylamino)-[1,1′-biphenyl]-2-carboxylic acid]
5 | 20 nM | CC(C)CN(CC(C)C)c1ccc(-c2ccc(Cl)cc2C(=O)O)cc1NC(=O)Nc1ccc(Cl)cc1F [Example 360, 4-Chloro-3′-(3-(4-chloro-2-fluorophenyl)ureido)-4′-(diisobutylamino)-[1,1′-biphenyl]-2-carboxylic acid]
6 | 2.15 nM | Cc1cc(NC(=O)Nc2cc(-c3cc(F)ccc3C(=O)O)c(F)cc2N(CC(C)C)C2CCCCC2)on1 [Example 376]
7 | 1.68 nM | Cc1cc(NC(=O)Nc2cc(-c3ccccc3C(=O)O)ccc2N(CC(C)C)C2CCCCC2)on1 [Example 377]
8 | 200 nM | Cc1cc(NC(=O)Nc2cc(-c3cc(F)ccc3C(=O)O)c(F)cc2N(CC(C)C)[C@@H]2C[C@H]3CC[C@@H]2C3)no1 [Example 385]
9 | 280 nM | CC(C)CN(CC(C)C)c1ccc(-c2ccccc2-c2nnn[nH]2)cc1NC(=O)Nc1cncnc1 [Example 391]
10 | 10 nM | CC(C)CN(c1cc(F)c(-c2cc(F)ccc2C(=O)O)cc1NC(=O)Nc1ccc(C(F)(F)F)cc1F)C1CCCCC1 [Example 392]
11 | 2.07 nM | CC(C)CN(c1cc(F)c(-c2cc(F)ccc2C(=O)O)cc1NC(=O)Nc1cc(C(F)(F)F)no1)C1CCCCC1 [Example 393]
12 | 7.9 nM | Cc1ccc(NC(=O)Nc2cc(-c3cc(F)ccc3C(=O)O)c(F)cc2N(CC(C)C)C2CCCCC2)cn1 [Example 394]
13 | 70 nM | Cc1ccc(NC(=O)Nc2cc(-c3ccccc3-c3nnn[nH]3)ccc2N(CC(C)C)CC(C)C)cn1 [Example 395]
14 | 6.07 nM | Cc1cc(NC(=O)Nc2cc(-c3ccccc3-c3nnn[nH]3)ccc2N(CC(C)C)CC(C)C)on1 [Example 396]
15 | 10 nM | CC(C)CN(c1ccc(-c2cc(F)ccc2C(=O)O)cc1NC(=O)Nc1cncnc1)C1CCCCC1 [Example 397]
16 | 9.69 nM | CC(C)CN(CC(C)C)c1ccc(-c2ccccc2-c2nnn[nH]2)cc1NC(=O)Nc1cc(C(F)(F)F)no1 [Example 398]
17 | 20 nM | Cc1ccc(NC(=O)Nc2cc(-c3cc(F)ccc3C(=O)O)ccc2N(CC(C)C)C2CCCCC2)cn1 [Example 399]
18 | 5.35 nM | CC(C)CN(c1ccc(-c2cc(F)ccc2C(=O)O)cc1NC(=O)Nc1cc(C(F)(F)F)no1)C1CCCCC1 [Example 400]
19 | 1180 nM | CC(C)CN(c1ccc(-c2cc(F)ccc2C(=O)O)cc1NC(=O)Nc1ccnnc1)C1CCCCC1 [Example 401]
20 | 4830 nM | CC(C)CN(c1cc(F)c(-c2cc(F)ccc2C(=O)O)cc1NC(=O)Nc1ccnnc1)C1CCCCC1 [Example 402]

Row | IC50 | SMILES
21 | 2.32 nM | CC(C)CN(c1cc(F)c(-c2cc(F)ccc2C(=O)O)cc1NC(=O)Nc1ccc2nccnc2c1)C1CCCCC1 [Example 403]
22 | 2560 nM | CC(C)CN(c1cc(F)c(-c2cc(F)ccc2C(=O)O)cc1NC(=O)Nc1ccc2nccn2c1)C1CCCCC1 [Example 404]
23 | 1230 nM | CC(C)CN(c1ccc(-c2cc(F)ccc2C(=O)O)cc1NC(=O)Nc1ccc2ncncc2c1)C1CCCCC1 [Example 405]
24 | 7.59 nM | CC(C)CN(c1ccc(-c2cc(F)ccc2C(=O)O)cc1NC(=O)Nc1ccc2nccnc2c1)C1CCCCC1 [Example 406]
25 | 3110 nM | CC(C)CN(c1ccc(-c2cc(F)ccc2C(=O)O)cc1NC(=O)Nc1ccc2nccn2c1)C1CCCCC1 [Example 407]
26 | 10 nM | Cc1cc(NC(=O)Nc2cc(-c3cc(F)ccc3C(=O)O)ccc2N(CC(C)C)C2CCCCC2)no1 [Example 408]
27 | 110 nM | CC(C)CN(c1ccc(-c2cc(F)ccc2C(=O)O)cc1NC(=O)Nc1ccc2nn(C)cc2c1)C1CCCCC1 [Example 409]
28 | 50 nM | Cc1ccc(NC(=O)Nc2cc(-c3cc(F)ccc3C(=O)O)c(F)cc2N(CC(C)C)C2C[C@H]3CC[C@@H]2C3)cc1 (some centres unmarked) [Example 410]
29 | 50 nM | CC(C)CN(c1cc(F)c(-c2cc(F)ccc2C(=O)O)cc1NC(=O)Nc1ccc(C#N)cc1)C1C[C@H]2CC[C@@H]1C2 (some centres unmarked) [Example 411]
30 | 60 nM | CCOc1ccc(NC(=O)Nc2cc(-c3cc(F)ccc3C(=O)O)c(F)cc2N(CC(C)C)C2C[C@H]3CC[C@@H]2C3)cc1 (some centres unmarked) [Example 412]
31 | 1960 nM | Cc1ncc(NC(=O)Nc2cc(-c3cc(F)ccc3C(=O)O)c(F)cc2N(CC(C)C)C2C[C@H]3CC[C@@H]2C3)cn1 (some centres unmarked) [Example 413]
32 | 130 nM | Cc1ccc(NC(=O)Nc2cc(-c3cc(F)ccc3C(=O)O)ccc2N(CCCC(F)(F)F)C2CCCCC2)cc1 [Example 415]
33 | 100 nM | Cc1ccc(NC(=O)Nc2cc(-c3ccccc3C(=O)O)ccc2N(CCCC(F)(F)F)C2CCCCC2)cc1 [Example 416]
34 | 1.89 nM | C=C(C)CN(CCCC(F)(F)F)c1ccc(-c2ccccc2-c2nnn[nH]2)cc1NC(=O)Nc1ccc(C)cc1 [Example 417]
35 | 4.63 nM | C=C(C)CN(CCCC(F)(F)F)c1ccc(-c2ccccc2C(=O)O)cc1NC(=O)Nc1ccc(C)cc1 [Example 418]
36 | 5.08 nM | C=C(C)CN(CCCC(F)(F)F)c1ccc(-c2cc(F)ccc2C(=O)O)cc1NC(=O)Nc1ccc(C)cc1 [Example 419]
37 | 5250 nM | COC(C)(C)CCN(c1ccc(-c2ccccc2C(=O)O)cc1NC(=O)Nc1ccc(C)cc1)C1CCCCC1 [Example 420]
38 | 3300 nM | COC(C)(C)CCN(c1ccc(-c2cc(F)ccc2C(=O)O)cc1NC(=O)Nc1ccc(C)cc1)C1CCCCC1 [Example 421]
39 | 1480 nM | COC(C)(C)CCN(CCCC(F)(F)F)c1ccc(-c2ccccc2C(=O)O)cc1NC(=O)Nc1ccc(C)cc1 [Example 422]
40 | 20 nM | COC[C@H](C)N(CCCC(F)(F)F)c1ccc(-c2ccccc2-c2nnn[nH]2)cc1NC(=O)Nc1ccc(C)cc1 [Example 423]

Row | IC50 | SMILES
41 | 5.27 nM | [2H]C([2H])(C(C)C)N(c1ccc(-c2ccccc2-c2nnn[nH]2)cc1NC(=O)Nc1ccc(C)cc1)C([2H])([2H])C(C)C [Example 424]
42 | 10 nM | Cc1ccc(NC(=O)Nc2cc(-c3ccccc3C(=O)O)c(F)cc2N(CC(C)C)CC(C)C)cc1 [Example 425]
43 | 8.85 nM | Cc1ccc(NC(=O)Nc2cc(-c3cc(F)ccc3C(=O)O)c(F)cc2N(CC(C)C)CC(C)C)cc1 [Example 426]
44 | 1.61 nM | CC(C)CN(CC(C)C)c1cc(F)c(-c2ccccc2C(=O)O)cc1NC(=O)Nc1ccc(Cl)cc1F [Example 427]
45 | 1.84 nM | CC(C)CN(CC(C)C)c1cc(F)c(-c2cc(F)ccc2C(=O)O)cc1NC(=O)Nc1ccc(Cl)cc1F [Example 428]
46 | 5.55 nM | Cc1ccc(NC(=O)Nc2cc(-c3ccccc3-c3nnn[nH]3)c(F)cc2N(CC(C)C)CC(C)C)cc1 [Example 429]
47 | 0.606 nM | CC(C)CN(c1c(F)cc(-c2ccccc2-c2nnn[nH]2)cc1NC(=O)Nc1ccccc1F)C1CCCCC1 [Example 430]
48 | 3.76 nM | CC(C)CN(c1c(F)cc(-c2cc(F)ccc2C(=O)O)cc1NC(=O)Nc1ccccc1F)C1CCCCC1 [Example 431]
49 | 1.82 nM | CC(C)CN(c1c(F)cc(-c2ccccc2C(=O)O)cc1NC(=O)Nc1ccccc1F)C1CCCCC1 [Example 432]
50 | 1.97 nM | Cc1ccc(NC(=O)Nc2cc(-c3ccccc3-c3nnn[nH]3)cc(F)c2N(CC(C)C)C2CCCCC2)cc1 [Example 433]
51 | 3.7 nM | CC(C)CN(c1c(F)cc(-c2cc(F)ccc2C(=O)O)cc1NC(=O)Nc1ccc(Cl)cc1F)C1CCCCC1 [Example 434]
52 | 3 nM | Cc1ccc(NC(=O)Nc2cc(-c3cc(F)ccc3C(=O)O)cc(F)c2N(CC(C)C)C2CCCCC2)cc1 [Example 435]
53 | 1.16 nM | CC(C)CN(c1c(F)cc(-c2ccccc2-c2nnn[nH]2)cc1NC(=O)Nc1ccc(Cl)cc1F)C1CCCCC1 [Example 436]
54 | 3.13 nM | Cc1ccc(NC(=O)Nc2cc(-c3ccccc3C(=O)O)cc(F)c2N(CC(C)C)C2CCCCC2)cc1 [Example 437]
55 | 1.67 nM | CC(C)CN(c1c(F)cc(-c2ccccc2C(=O)O)cc1NC(=O)Nc1ccc(Cl)cc1F)C1CCCCC1 [Example 438]
56 | 10 nM | CCC(CC)N(CC(C)C)c1ccc(-c2cc(F)ccc2C(=O)O)cc1NC(=O)Nc1ccc(C)cc1 [Example 439]
57 | 1.55 nM | CCC(CC)N(CC(C)C)c1ccc(-c2ccccc2C(=O)O)cc1NC(=O)Nc1ccc(Cl)cc1F [Example 440]
58 | 1.14 nM | CCC(CC)N(CC(C)C)c1ccc(-c2ccccc2-c2nnn[nH]2)cc1NC(=O)Nc1ccc(Cl)cc1F [Example 441]
59 | 2.23 nM | CCC(CC)N(CC(C)C)c1ccc(-c2cc(F)ccc2C(=O)O)cc1NC(=O)Nc1ccc(Cl)cc1F [Example 442]
